Laboratory results taken from BigSolDB 2.1.

Conditions: in water

CC(C)(C)[C@H](O)[C@H](Cc1ccc(Cl)cc1)n1cncn1 (racemic)
Conditions	solubility (mole fraction)
278.15 K	3.96e-05
280.65 K	5.22e-05
283.15 K	6.56e-05
285.65 K	7.76e-05
288.15 K	8.75e-05
290.65 K	0.000111
293.15 K	0.000146
295.65 K	0.000181
298.15 K	0.000231
300.65 K	0.000295
303.15 K	0.000346
305.65 K	0.000408
308.15 K	0.000458
310.65 K	0.00054
313.15 K	0.000626
